Experimental data: ChEMBL document CHEMBL4819101, “Design, synthesis and molecular docking studies of thymol based 1,2,3-triazole hybrids as thymidylate synthase inhibitors and apoptosis inducers against breast cancer cells” (Bioorg Med Chem, 2021)

What was measured:
[1] = test system: MDA-MB-231; assay: cells; settings: Homo sapiens, MDA-MB-231, 72 h
Description: Cytotoxicity against human MDA-MB-231 cells assessed as cell growth inhibition incubated for 72 hrs by MTT assay

[2] = test system: MCF7; assay: cells; settings: Homo sapiens, MCF7, 72 h
Description: Cytotoxicity against human MCF7 cells assessed as cell growth inhibition incubated for 72 hrs by MTT assay

[3] = test system: MCF7; assay: Potency index, ratio of 5-fluorouracil IC50 to test compound IC50 for cytotoxicity against human MCF7 cells assessed as cell growth inhibition incubated for 72 hrs by MTT assay; assay type: functional
[4] = biological target: T1, Thymidylate synthase (Homo sapiens, UniProt P04818); assay: Inhibition of thymidylate synthase (unknown origin)
[5] = test system: MDA-MB-231; assay: Potency index, ratio of tamoxifen IC50 to test compound IC50 for cytotoxicity against human MDA-MB-231 cells assessed as cell growth inhibition incubated for 72 hrs by MTT assay; assay type: functional
[6] = test system: MDA-MB-231; assay: Potency index, ratio of 5-fluorouracil IC50 to test compound IC50 for cytotoxicity against human MDA-MB-231 cells assessed as cell growth inhibition incubated for 72 hrs by MTT assay; assay type: functional
[7] = biological target: T1, Thymidylate synthase; assay: Inhibition of human thymidylate synthase expressed in Escherichia coli using 6R,S-tetrahydrofolate and dUMP as substrate by spectrophotometric analysis
[8] = test system: MCF7; assay: Induction of cell cycle arrest in human MCF7 cells assessed as increase in accumulation at G2/M phase at 10 uM incubated for 48 hrs by PI staining based flow cytometry analysis relative to control; assay type: functional
[9] = test system: HEK293; assay: Cytotoxicity against human HEK293 cells assessed as cell growth inhibition incubated for 72 hrs by MTT assay; assay type: cell-based; settings: HEK293, 72 h
[10] = test system: MCF7; assay: Induction of cell cycle arrest in human MCF7 cells assessed as accumulation at sub-G1 phase at 10 uM incubated for 48 hrs by PI staining based flow cytometry analysis (reference value: 3.7 %); assay type: functional
[11] = test system: MCF7; assay: Induction of apoptosis in human MCF7 cells assessed as total apoptotic cells at 10 uM incubated for 48 hrs by annexin-V-FITC and PI staining based flow cytometry analysis (reference value: 8.3 %); assay type: functional

T1 sequence (P04818 whole entry): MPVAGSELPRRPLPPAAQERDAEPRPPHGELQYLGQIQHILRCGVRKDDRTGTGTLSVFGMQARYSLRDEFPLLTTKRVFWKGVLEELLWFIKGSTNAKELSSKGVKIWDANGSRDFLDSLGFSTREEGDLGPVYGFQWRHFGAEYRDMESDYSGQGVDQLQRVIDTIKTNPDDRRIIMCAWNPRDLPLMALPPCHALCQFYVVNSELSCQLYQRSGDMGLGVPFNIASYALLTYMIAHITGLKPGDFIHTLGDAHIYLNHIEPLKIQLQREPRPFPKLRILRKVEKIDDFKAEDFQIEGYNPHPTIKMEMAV

Row | SMILES | IC50 [1] [µM] | IC50 [2] [µM] | further results
1 | Cc1ccc(C(C)C)c(OCc2cn(-c3ccccc3)nn2)c1 | 45.1 | 29.9 | 
2 | Cc1ccc(C(C)C)c(OCc2cn(-c3ccccc3Cl)nn2)c1 | 26.6 | 15.6 | Ratio IC50 [3]: 1.2
3 | CCOC(=O)C1CCC(c2ccccc2)N1C(=O)c1cn(CCCNC(=O)C(F)(F)F)nn1 (stereo not given) |  |  | IC50 [4]: 0.057 µM
4 | Cc1cccc(-n2cc(COc3cc(C)ccc3C(C)C)nn2)c1 | 31.2 | 28.1 | 
5 | Cc1ccc(C(C)C)c(OCc2cn(-c3ccc(F)cc3)nn2)c1 | 32.6 | 22.1 | 
6 | Cc1ccc(C(C)C)c(OCc2cn(-c3cccc(C(=O)O)c3)nn2)c1 | 11.4 | 10.3 | Ratio IC50 [3]: 1.95; Ratio IC50 [5]: 1.3; Ratio IC50 [6]: 2.2; IC50 [7]: 4.27 µM
7 | Cc1ccc(C(C)C)c(OCc2cn(-c3cccc(Cl)c3)nn2)c1 | 45.2 | 32.1 | 
8 | Cc1ccc(C(C)C)c(OCc2cn(-c3cccc4c(-n5cc(COc6cc(C)ccc6C(C)C)nn5)cccc34)nn2)c1 | 22.1 | 18.1 | 
9 | Cc1ccc(C(C)C)c(OCc2cn(-c3ccc(O)cc3)nn2)c1 | 30.4 | 45.4 | 
10 | COc1ccc(-n2cc(COc3cc(C)ccc3C(C)C)nn2)cc1 | 45.3 | 25.4 | 
11 | Cc1ccc(C(C)C)c(OCc2cn(-c3ccccc3C)nn2)c1 | 10.5 | 6.17 | Ratio IC50 [3]: 3.2; Ratio IC50 [5]: 1.42; Activity [8]: 37.3%; IC50 [9]: > 50 µM; Activity [10]: 21.4%; IC50 [7]: 2.21 µM; Activity [11]: 29.4%
12 | Cc1ccc(C(C)C)c(OCc2cn(-c3ccc([N+](=O)[O-])cc3)nn2)c1 | 41 | 32.2 | 
13 | O=c1[nH]cc(F)c(=O)[nH]1 [FLUOROURACIL] | 25.3 | 20.1 | 
14 | Nc1nc2[nH]cc(CCc3ccc(C(=O)N[C@@H](CCC(=O)O)C(=O)O)cc3)c2c(=O)[nH]1 [PEMETREXED] |  |  | IC50 [7]: 5.39 µM
15 | CC/C(=C(\c1ccccc1)c1ccc(OCCN(C)C)cc1)c1ccccc1 [TAMOXIFEN] | 15 | 5.62 | 
